From ChEMBL document CHEMBL1697781, “Assessment of the health effects of chemicals in humans: II. Construction of an adverse effects database for QSAR modeling” (Curr Drug Discov Technol, 2004)

Tests used:
Settings in all cases: human; call rule not given here
Hepatotoxicity [1] = experiment: FDA HLAED, serum glutamic pyruvic transaminase (SGPT) increase
Hepatotoxicity [2] = experiment: FDA HLAED, liver enzyme composite activity
Hepatotoxicity [3] = experiment: FDA HLAED, alkaline phosphatase increase
Hepatotoxicity [4] = experiment: FDA HLAED, serum glutamic oxaloacetic transaminase (SGOT) increase
Hepatotoxicity [5] = experiment: FDA HLAED, gamma-glutamyl transferase (GGT) increase
Hepatotoxicity [6] = experiment: FDA HLAED, lactate dehydrogenase (LDH) increase
For GGT Increase - Index Value in this document: reference of the scale not given here.
For LDH Increase - Index Value in this document: reference of the scale not given here.

SMILES | SGPT Increase - Activity Score (Hepatotoxicity [1]) | SGPT Increase - Index Value (Hepatotoxicity [1]) | SGPT Increase - Number of Reports (Hepatotoxicity [1]) | Composite Activity - Active (Hepatotoxicity [2]) | Composite Activity - Marginal (Hepatotoxicity [2]) | Composite Activity - Score (Hepatotoxicity [2]) | Alkaline Phosphatase Increase - Activity Score (Hepatotoxicity [3]) | Alkaline Phosphatase Increase - Index Value (Hepatotoxicity [3]) | Alkaline Phosphatase Increase - Number of Reports (Hepatotoxicity [3]) | SGOT Increase - Activity Score (Hepatotoxicity [4]) | SGOT Increase - Index Value (Hepatotoxicity [4]) | SGOT Increase - Number of Reports (Hepatotoxicity [4]) | GGT Increase - Activity Score (Hepatotoxicity [5]) | GGT Increase - Index Value (Hepatotoxicity [5]) | GGT Increase - Number of Reports (Hepatotoxicity [5]) | LDH Increase - Activity Score (Hepatotoxicity [6]) | LDH Increase - Index Value (Hepatotoxicity [6]) | LDH Increase - Number of Reports (Hepatotoxicity [6]) | also measured
CC(=O)Oc1c(C)cc(OCC(O)CNC(C)C)c(C)c1C (stereo unspecified) [METIPRANOLOL] | Inactive | 0 | < 4 | 0 | 0 | Inactive | Inactive | 0 | < 4 | Inactive | 0 | < 4 | Inactive | 0 | < 4 | Inactive | 0 | < 4 | –
CCN(CC)CCNC(=O)c1cc(Cl)c(N)cc1OC [METOCLOPRAMIDE] | Inactive | 0 | < 4 | 0 | 0 | Inactive | Inactive | No Shipping Units | < 4 | Inactive | 0 | < 4 | Inactive | 0 | < 4 | Inactive | 0 | < 4 | –
COCCc1ccc(OCC(O)CNC(C)C)cc1 (stereo unspecified) [METOPROLOL] | Inactive | 0.5 | >= 4 | 0 | 0 | Inactive | Inactive | 0.4 | >= 4 | Inactive | 0.5 | >= 4 | Inactive | 0 | < 4 | Inactive | 0.3 | < 4 | –
C[C@](N)(Cc1ccc(O)cc1)C(=O)O [METYROSINE] | Inactive | 0 | < 4 | – | – | – | Inactive | 0 | < 4 | Inactive | 0 | < 4 | Inactive | 0 | < 4 | Inactive | 0 | < 4 | Composite Activity - Active (Hepatotoxicity [2]; Liver): 0; Composite Activity - Marginal (Hepatotoxicity [2]; Liver): 0; Composite Activity - Score (Hepatotoxicity [2]; Liver): Inactive
Cc1cccc(C)c1OCC(C)N (stereo unspecified) [MEXILETINE] | Marginally Active | 3.6 | >= 4 | – | – | – | Marginally Active | 3.1 | >= 4 | Active | 6.7 | >= 4 | Inactive | 0 | < 4 | Inactive | 2 | >= 4 | Composite Activity - Active (Hepatotoxicity [2]; Liver): 1; Composite Activity - Marginal (Hepatotoxicity [2]; Liver): 2; Composite Activity - Score (Hepatotoxicity [2]; Liver): Inactive
CC1(C)S[C@@H]2[C@H](NC(=O)[C@H](NC(=O)N3CCN(S(C)(=O)=O)C3=O)c3ccccc3)C(=O)N2[C@H]1C(=O)O [MEZLOCILLIN] | Inactive | 0 | < 4 | – | – | – | Inactive | 1.9 | < 4 | Inactive | 0 | < 4 | Inactive | 0 | < 4 | Inactive | 0 | < 4 | Composite Activity - Active (Hepatotoxicity [2]; Liver): 0; Composite Activity - Marginal (Hepatotoxicity [2]; Liver): 0; Composite Activity - Score (Hepatotoxicity [2]; Liver): Inactive
Cc1ncc2n1-c1ccc(Cl)cc1C(c1ccccc1F)=NC2 [MIDAZOLAM] | Inactive | 0.2 | < 4 | 0 | 0 | Inactive | Inactive | 0.2 | < 4 | Inactive | 0.2 | < 4 | Inactive | 0 | < 4 | Inactive | 0 | < 4 | –
COc1ccc(OC)c(C(O)CNC(=O)CN)c1 (stereo unspecified) [MIDODRINE] | Inactive | 0 | < 4 | 0 | 0 | Inactive | Inactive | 0 | < 4 | Inactive | 0 | < 4 | Inactive | 0 | < 4 | Inactive | 0 | < 4 | –
Nc1cc(N2CCCCC2)nc(N)[n+]1[O-] [MINOXIDIL] | Inactive | 1.1 | >= 4 | 0 | 0 | Inactive | Inactive | 0.7 | >= 4 | Inactive | 0.9 | >= 4 | Inactive | 0.3 | < 4 | Inactive | 0 | < 4 | –
CN1CCN2c3ncccc3Cc3ccccc3C2C1 (stereo unspecified) [MIRTAZAPINE] | Active | 6.4 | >= 4 | 1 | 2 | Inactive | Inactive | 0.9 | < 4 | Marginally Active | 3.6 | >= 4 | Marginally Active | 3.6 | < 4 | Inactive | 0.9 | < 4 | –
CCCCC(C)(O)C/C=C/[C@H]1[C@H](O)CC(=O)[C@@H]1CCCCCCC(=O)OC (stereo partly specified) [MISOPROSTOL] | Inactive | 0.2 | < 4 | 0 | 0 | Inactive | Inactive | 0.8 | >= 4 | Inactive | 0.8 | >= 4 | Inactive | 0.5 | < 4 | Inactive | 0.5 | < 4 | –
O=C1c2c(O)ccc(O)c2C(=O)c2c(NCCNCCO)ccc(NCCNCCO)c21 [MITOXANTRONE] | Inactive | 4.5 | < 4 | 1 | 0 | Inactive | Inactive | 4.5 | < 4 | Active | 13.5 | < 4 | Inactive | 0 | < 4 | Inactive | 0 | < 4 | –
